From ChEMBL document CHEMBL1201862, “PubChem BioAssay data set” (2004)
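Values below derive from 48-hour exposures of cells grown in 96-well plates, with endpoints linearly interpolated between the two concentrations bracketing the appropriate inhibition level. GI50 marks 50% less growth.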 Active and inactive are the calls of the source. Cut-off read from the data, not from the text of the source: active = GI50 up to about 1.1 µM and inactive = higher.

Legend:
Experiment in all cases: NCI-60 cell line screen, 48 h
[1] = tested on: 786-0
[2] = tested on: A498
[3] = tested on: A549
[4] = tested on: ACHN
[5] = tested on: CAKI-1
[6] = tested on: CCRF-CEM
[7] = tested on: COLO 205
[8] = tested on: DLD-1
[9] = tested on: DMS-114
[10] = tested on: DMS-273
[11] = tested on: EKVX
[12] = tested on: HCC 2998
[13] = tested on: HCT-116
[14] = tested on: HCT-15
[15] = tested on: HL-60
[16] = tested on: HOP-18
[17] = tested on: HOP-62
[18] = tested on: HOP-92
[19] = tested on: HT-29
[20] = tested on: IGROV-1
[21] = tested on: K562
[22] = tested on: KM-20L2
[23] = tested on: KM12
[24] = tested on: LOX IMVI
[25] = tested on: LXFL 529
[26] = tested on: M14
[27] = tested on: M19-MEL
[28] = tested on: MCF7
[29] = tested on: MOLT-4
[30] = tested on: Malme-3M
[31] = tested on: NCI-H226
[32] = tested on: NCI-H23
[33] = tested on: NCI-H460
[34] = tested on: NCI-H522
[35] = tested on: NCI/ADR-RES
[36] = tested on: OVCAR-3
[37] = tested on: OVCAR-4
[38] = tested on: OVCAR-5
[39] = tested on: OVCAR-8
[40] = tested on: RPMI-8226
[41] = tested on: RXF 393
[42] = tested on: SF-268
[43] = tested on: SF-295
[44] = tested on: SF-539
[45] = tested on: SK-MEL-28
[46] = tested on: SK-MEL-2
[47] = tested on: SK-MEL-5
[48] = tested on: SK-OV-3
[49] = tested on: SN12C
[50] = tested on: SNB-19
[51] = tested on: SNB-75
[52] = tested on: SNB-78
[53] = tested on: SR
[54] = tested on: SW-620
[55] = tested on: TK-10
[56] = tested on: U-251
[57] = tested on: UACC-257
[58] = tested on: UACC-62
[59] = tested on: UO-31
[60] = tested on: XF498

SMILES: Cn1sc2ccccc2c1=S
- GI50 [1]: 3.85 µM (inactive)
- GI50 [2]: 48.5 µM (inactive)
- GI50 [3]: 13.9 µM (inactive)
- GI50 [4]: 13.8 µM (inactive)
- GI50 [5]: 11.7 µM (inactive)
- GI50 [6]: 2.44 µM (inactive)
- GI50 [7]: 13.3 µM (inactive)
- GI50 [8]: 3.07 µM (inactive)
- GI50 [9]: 2.58 µM (inactive)
- GI50 [10]: 5.64 µM (inactive)
- GI50 [11]: 8.69 µM (inactive)
- GI50 [12]: 28.2 µM (inactive)
- GI50 [13]: 3.21 µM (inactive)
- GI50 [14]: 5.5 µM
- GI50 [15]: 5.47 µM (inactive)
- GI50 [16]: 11.2 µM (inactive)
- GI50 [17]: 16.5 µM (inactive)
- GI50 [18]: 16.6 µM (inactive)
- GI50 [19]: 10.7 µM (inactive)
- GI50 [20]: 13 µM (inactive)
- GI50 [21]: 3.71 µM (inactive)
- GI50 [22]: 13.7 µM (inactive)
- GI50 [23]: 12 µM (inactive)
- GI50 [24]: 1.78 µM (inactive)
- GI50 [25]: 14 µM (inactive)
- GI50 [26]: 10.4 µM (inactive)
- GI50 [27]: 4.59 µM (inactive)
- GI50 [28]: 2.64 µM (inactive)
- GI50 [29]: 4.04 µM (inactive)
- GI50 [30]: 9.82 µM (inactive)
- GI50 [31]: 23.2 µM (inactive)
- GI50 [32]: 11.7 µM (inactive)
- GI50 [33]: 13.8 µM (inactive)
- GI50 [34]: 3.16 µM (inactive)
- GI50 [35]: 3.21 µM (inactive)
- GI50 [36]: 4.2 µM (inactive)
- GI50 [37]: 8.2 µM (inactive)
- GI50 [38]: 20 µM (inactive)
- GI50 [39]: 9.71 µM (inactive)
- GI50 [40]: 6.73 µM (inactive)
- GI50 [41]: 3.08 µM (inactive)
- GI50 [42]: 3.5 µM (inactive)
- GI50 [43]: 12.6 µM (inactive)
- GI50 [44]: 5.83 µM (inactive)
- GI50 [45]: 8.11 µM (inactive)
- GI50 [46]: 20 µM (inactive)
- GI50 [47]: 12.4 µM (inactive)
- GI50 [48]: 36.1 µM (inactive)
- GI50 [49]: 6.75 µM (inactive)
- GI50 [50]: 12.2 µM (inactive)
- GI50 [51]: 6.82 µM (inactive)
- GI50 [52]: 15 µM (inactive)
- GI50 [53]: 14 µM (inactive)
- GI50 [54]: 2.28 µM (inactive)
- GI50 [55]: 24.1 µM (inactive)
- GI50 [56]: 4.01 µM (inactive)
- GI50 [57]: 8.63 µM (inactive)
- GI50 [58]: 5.78 µM (inactive)
- GI50 [59]: 15.3 µM (inactive)
- GI50 [60]: 11.9 µM (inactive)

SMILES: C/C=C/CP(=O)(c1ccccc1)c1ccccc1
- GI50 [1]: > 100 µM (inactive)
- GI50 [2]: > 100 µM (inactive)
- GI50 [3]: > 100 µM (inactive)
- GI50 [4]: > 100 µM (inactive)
- GI50 [6]: > 100 µM (inactive)
- GI50 [7]: > 100 µM (inactive)
- GI50 [8]: > 100 µM (inactive)
- GI50 [9]: > 100 µM (inactive)
- GI50 [10]: > 100 µM (inactive)
- GI50 [11]: > 100 µM (inactive)
- GI50 [12]: > 100 µM (inactive)
- GI50 [13]: > 100 µM (inactive)
- GI50 [14]: > 100 µM
- GI50 [15]: > 100 µM (inactive)
- GI50 [16]: > 100 µM (inactive)
- GI50 [17]: > 100 µM (inactive)
- GI50 [19]: > 100 µM (inactive)
- GI50 [20]: > 100 µM (inactive)
- GI50 [21]: > 100 µM (inactive)
- GI50 [22]: > 100 µM (inactive)
- GI50 [23]: > 100 µM (inactive)
- GI50 [24]: > 100 µM (inactive)
- GI50 [25]: > 100 µM (inactive)
- GI50 [26]: > 100 µM (inactive)
- GI50 [27]: > 100 µM (inactive)
- GI50 [29]: > 100 µM (inactive)
- GI50 [30]: > 100 µM (inactive)
- GI50 [31]: > 100 µM (inactive)
- GI50 [32]: > 100 µM (inactive)
- GI50 [33]: > 100 µM (inactive)
- GI50 [34]: > 100 µM (inactive)
- GI50 [36]: > 100 µM (inactive)
- GI50 [37]: > 100 µM (inactive)
- GI50 [38]: > 100 µM (inactive)
- GI50 [39]: > 100 µM (inactive)
- GI50 [40]: > 100 µM (inactive)
- GI50 [41]: > 100 µM (inactive)
- GI50 [43]: > 100 µM (inactive)
- GI50 [44]: > 100 µM (inactive)
- GI50 [45]: > 100 µM (inactive)
- GI50 [46]: > 100 µM (inactive)
- GI50 [47]: > 100 µM (inactive)
- GI50 [48]: > 100 µM (inactive)
- GI50 [49]: > 100 µM (inactive)
- GI50 [50]: > 100 µM (inactive)
- GI50 [51]: > 100 µM (inactive)
- GI50 [52]: > 100 µM (inactive)
- GI50 [53]: > 100 µM (inactive)
- GI50 [54]: > 100 µM (inactive)
- GI50 [55]: > 100 µM (inactive)
- GI50 [56]: > 100 µM (inactive)
- GI50 [57]: > 100 µM (inactive)
- GI50 [58]: > 100 µM (inactive)
- GI50 [59]: > 100 µM (inactive)
- GI50 [60]: > 100 µM (inactive)

SMILES: COC(=O)C1=C(C)N(NC(=O)OC(C)(C)C)C(=O)C1=P(c1ccccc1)(c1ccccc1)c1ccccc1
- GI50 [1]: > 100 µM (inactive)
- GI50 [2]: > 100 µM (inactive)
- GI50 [3]: > 100 µM (inactive)
- GI50 [4]: > 100 µM (inactive)
- GI50 [5]: > 100 µM (inactive)
- GI50 [6]: > 100 µM (inactive)
- GI50 [7]: > 100 µM (inactive)
- GI50 [8]: > 100 µM (inactive)
- GI50 [9]: > 100 µM (inactive)
- GI50 [10]: 35.2 µM (inactive)
- GI50 [11]: > 100 µM (inactive)
- GI50 [12]: > 100 µM (inactive)
- GI50 [13]: > 100 µM (inactive)
- GI50 [14]: > 100 µM
- GI50 [15]: 42.4 µM (inactive)
- GI50 [16]: > 100 µM (inactive)
- GI50 [17]: > 100 µM (inactive)
- GI50 [18]: > 100 µM (inactive)
- GI50 [19]: > 100 µM (inactive)
- GI50 [20]: > 100 µM (inactive)
- GI50 [21]: 73.5 µM (inactive)
- GI50 [22]: > 100 µM (inactive)
- GI50 [23]: 64 µM (inactive)
- GI50 [24]: > 100 µM (inactive)
- GI50 [25]: > 100 µM (inactive)
- GI50 [26]: > 100 µM (inactive)
- GI50 [27]: > 100 µM (inactive)
- GI50 [29]: 41.4 µM (inactive)
- GI50 [30]: > 100 µM (inactive)
- GI50 [31]: > 100 µM (inactive)
- GI50 [32]: > 100 µM (inactive)
- GI50 [33]: > 100 µM (inactive)
- GI50 [34]: 75.5 µM (inactive)
- GI50 [36]: 66.8 µM (inactive)
- GI50 [37]: > 100 µM (inactive)
- GI50 [38]: > 100 µM (inactive)
- GI50 [39]: > 100 µM (inactive)
- GI50 [40]: > 100 µM (inactive)
- GI50 [41]: > 100 µM (inactive)
- GI50 [42]: > 100 µM (inactive)
- GI50 [43]: 67.9 µM (inactive)
- GI50 [44]: > 100 µM (inactive)
- GI50 [46]: 17.2 µM (inactive)
- GI50 [47]: > 100 µM (inactive)
- GI50 [48]: > 100 µM (inactive)
- GI50 [49]: > 100 µM (inactive)
- GI50 [50]: > 100 µM (inactive)
- GI50 [51]: > 100 µM (inactive)
- GI50 [52]: > 100 µM (inactive)
- GI50 [53]: 69 µM (inactive)
- GI50 [54]: > 100 µM (inactive)
- GI50 [55]: > 100 µM (inactive)
- GI50 [56]: > 100 µM (inactive)
- GI50 [57]: > 100 µM (inactive)
- GI50 [58]: > 100 µM (inactive)
- GI50 [59]: > 100 µM (inactive)
- GI50 [60]: > 100 µM (inactive)
